Reference: US20230103791A1 (GLAXOSMITHKLINE INTELLECTUAL PROPERTY DEVELOPMENT LIMITED, priority 2019, published 2023)
Like-named read-outs stand apart in the source and are kept apart here.

Target: T1, human Nav1.8 (Homo sapiens, UniProt Q9Y5Y9)
T1 construct: expressed in transfected cells; host or cells: HEK293 (HEK293-Nav1.8)
Assay: Nav1.8 sodium channels assay, QPatch 48 HTX electrophysiology in HEK293-Nav1.8 cells
Type: cell-based
How it was run: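 IC50 came from 6-8 point curves of P2 current amplitude, normalized to baseline and a positive reference, and corrected for run-down using vehicle-only wells. Automated patch clamp used HEK293-Nav1.8 (with Navβ1 and TREK1) at pH 7.4 outside and CsF-based solution inside. An 8 s inactivating step at −46 mV preceded the 0 mV test pulse, repeated at 0.07 Hz.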

[1] = at least one set of experimental runs, read-out: average pIC50 value against Nav1.8 (converted)

T1 sequence (Q9Y5Y9 whole entry): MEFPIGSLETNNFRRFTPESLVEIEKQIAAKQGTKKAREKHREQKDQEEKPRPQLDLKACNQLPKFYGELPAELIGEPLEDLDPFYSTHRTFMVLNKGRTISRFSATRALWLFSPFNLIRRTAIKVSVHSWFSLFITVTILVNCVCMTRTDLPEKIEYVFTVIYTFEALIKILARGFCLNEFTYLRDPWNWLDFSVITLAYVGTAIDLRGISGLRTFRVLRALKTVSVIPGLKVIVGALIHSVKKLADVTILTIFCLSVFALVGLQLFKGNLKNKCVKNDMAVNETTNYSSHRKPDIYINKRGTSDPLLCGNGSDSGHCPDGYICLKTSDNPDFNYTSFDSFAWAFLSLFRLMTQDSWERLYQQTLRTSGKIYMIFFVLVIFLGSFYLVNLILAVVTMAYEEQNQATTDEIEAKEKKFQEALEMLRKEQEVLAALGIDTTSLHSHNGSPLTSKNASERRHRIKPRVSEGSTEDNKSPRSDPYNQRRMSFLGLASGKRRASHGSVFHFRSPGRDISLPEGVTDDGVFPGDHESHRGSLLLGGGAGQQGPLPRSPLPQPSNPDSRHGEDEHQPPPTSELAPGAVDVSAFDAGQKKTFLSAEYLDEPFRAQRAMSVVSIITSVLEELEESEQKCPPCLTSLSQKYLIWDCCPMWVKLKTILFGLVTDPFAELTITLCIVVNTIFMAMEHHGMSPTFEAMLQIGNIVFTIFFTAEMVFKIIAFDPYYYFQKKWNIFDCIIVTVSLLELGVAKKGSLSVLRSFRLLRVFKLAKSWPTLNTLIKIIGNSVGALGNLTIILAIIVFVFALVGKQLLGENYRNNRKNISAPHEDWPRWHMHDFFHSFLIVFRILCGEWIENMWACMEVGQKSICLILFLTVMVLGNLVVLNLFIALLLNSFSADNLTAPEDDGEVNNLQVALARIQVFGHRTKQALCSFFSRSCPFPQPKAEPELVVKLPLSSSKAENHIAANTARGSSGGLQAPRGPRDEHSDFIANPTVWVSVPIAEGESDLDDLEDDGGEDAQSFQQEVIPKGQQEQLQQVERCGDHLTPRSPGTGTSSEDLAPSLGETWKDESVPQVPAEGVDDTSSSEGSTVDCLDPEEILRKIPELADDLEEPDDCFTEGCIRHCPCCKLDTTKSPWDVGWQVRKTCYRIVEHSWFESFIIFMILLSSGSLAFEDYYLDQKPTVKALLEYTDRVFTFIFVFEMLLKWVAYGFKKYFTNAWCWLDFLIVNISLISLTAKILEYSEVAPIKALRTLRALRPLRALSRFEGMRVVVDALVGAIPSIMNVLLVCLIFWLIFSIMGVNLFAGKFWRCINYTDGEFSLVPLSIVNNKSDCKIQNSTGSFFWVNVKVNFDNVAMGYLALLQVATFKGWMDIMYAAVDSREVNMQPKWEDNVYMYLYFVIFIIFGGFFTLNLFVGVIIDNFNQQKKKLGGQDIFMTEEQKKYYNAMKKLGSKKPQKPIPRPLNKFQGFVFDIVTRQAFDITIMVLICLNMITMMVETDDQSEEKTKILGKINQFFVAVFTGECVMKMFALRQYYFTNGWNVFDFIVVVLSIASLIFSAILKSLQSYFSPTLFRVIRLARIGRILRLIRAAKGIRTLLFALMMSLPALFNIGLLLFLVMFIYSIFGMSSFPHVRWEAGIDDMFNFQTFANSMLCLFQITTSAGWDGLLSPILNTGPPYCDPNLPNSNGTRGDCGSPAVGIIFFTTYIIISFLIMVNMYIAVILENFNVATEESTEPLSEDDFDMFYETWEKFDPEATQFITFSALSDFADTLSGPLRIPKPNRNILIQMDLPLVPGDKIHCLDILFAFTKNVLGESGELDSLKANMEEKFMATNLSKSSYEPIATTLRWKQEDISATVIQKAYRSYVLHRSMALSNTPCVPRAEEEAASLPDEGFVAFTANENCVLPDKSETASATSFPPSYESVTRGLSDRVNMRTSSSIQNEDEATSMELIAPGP
T1 sequence (Q07699 19-218 partner): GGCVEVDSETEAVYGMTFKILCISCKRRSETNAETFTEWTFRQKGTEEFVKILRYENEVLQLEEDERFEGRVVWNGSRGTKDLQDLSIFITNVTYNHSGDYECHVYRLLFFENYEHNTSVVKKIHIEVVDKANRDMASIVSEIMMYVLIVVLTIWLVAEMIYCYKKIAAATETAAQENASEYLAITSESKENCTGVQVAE

`O=C1c2ccc(C(F)(F)F)cc2N(c2ccc(F)cc2OCCO)CN1c1ccc(=O)[nH]c1` [Example 41, 1-(4-fluoro-2-(2-hydroxyeth-oxy)phenyl)-3-(6-oxo-1,6-dihydropyridin-3-yl)-7-(trifluoromethyl)-2,3-dihydroquinazolin-4(1H)-one] was tested. Which IC50 [1] did it give?
Its IC50 is 794 to 7940 nM.

`Cc1cc(O)ccc1N1CN(c2ccc(F)cc2C)c2ccc(C(F)(F)F)cc2C1=O` [Example 266, 1-(4-Fluoro-2-methylphenyl)-3-(4-hydroxy-2-methylphenyl)-6-(trifluoromethyl)-2,3-dihydroquinazolin-4(1H)-one] was tested. Which IC50 [1] did it give?
The IC50 was 794 to 7940 nM.

For `Cc1cc(F)ccc1N1CN(c2ncc(=O)[nH]c2C)C(=O)c2ccc(C(F)(F)F)cc21` [drawing 308, 1-(4-fluoro-2-methylphenyl)-3-(3-methyl-5-oxo-4,5-dihydropyrazin-2-yl)-7-(trifluoromethyl)-2,3-dihydroquinazolin-4(1H)-one], which IC50 (Table 1, HEK293-Nav1.8, QPatch 48 HTX, half inactivation state voltage protocol (V1/2), single run or average of two or more runs, read-out: Nav1.8 pIC50 (converted)) is on record?
The IC50 was 398 nM.

`Cc1cc(F)ccc1N1CN(c2ccc(=O)[nH]c2C)C(=O)c2cc(F)c(Cl)cc21` [Example 109, 7-chloro-6-fluoro-1-(4-fluoro-2-methylphenyl)-3-(2-methyl-6-oxo-1,6-dihydropyridin-3-yl)-2,3-dihydroquinazolin-4(1H)-one] was tested. Which IC50 [1] did it give?
Its IC50 is no more than 100 nM.

Which IC50 (Table 2, HEK293-Nav1.8, QPatch 48 HTX, half inactivation state voltage protocol (V1/2), single run or average of two or more runs, read-out: Nav1.8 pIC50 (converted)) does the source give for `Cc1cc(N2CN(c3ccc(F)cc3C)c3cc(C(F)(F)F)ccc3C2=O)cc(=O)[nH]1` [drawing 310, 1-(4-fluoro-2-methylphenyl)-3-(6-methyl-2-oxo-1,2-dihydropyridin-4-yl)-7-(trifluoromethyl)-2,3-dihydroquinazolin-4(1H)-one] here?
Its IC50 is 2510 nM.

Which IC50 [1] does the source give for `Cc1cc(=O)[nH]cc1N1CN(c2ccc(F)cc2C)c2cc(C(F)(F)F)ccc2C1=O` [Example 221, 1-(4-fluoro-2-methylphenyl)-3-(4-methyl-6-oxo-1,6-dihydropyridin-3-yl)-7-(trifluoromethyl)-2,3-dihydroquinazolin-4(1H)-one] here?
Its IC50 is 126 to 631 nM.

With `Cc1[nH]c(=O)ccc1N1CN([C@@H]2CCCC[C@H]2C)c2cc(C(F)(F)F)ccc2C1=O` [Example 280, 3-(2-Methyl-6-oxo-1,6-dihydropyridin-3-yl)-1-((1R,2R)-2-methylcyclohexyl)-7-(trifluoromethyl)-2,3-dihydroquinazolin-4(1H)-one] as the molecule, how does the IC50 [1] read?
Its IC50 is 126 to 631 nM.

How did the IC50 [1] turn out when `Cc1cc(Cl)ccc1N1CN(c2ccc(=O)[nH]c2C)C(=O)c2cc(C(F)(F)F)cnc21` [Example 196, 1-(4-chloro-2-methylphenyl)-3-(2-methyl-6-oxo-1,6-dihydropyridin-3-yl)-6-(trifluoromethyl)-2,3-dihydropyrido[2,3-d]pyrimidin-4(1H)-one] was run?
Its IC50 is 126 to 631 nM.

With `Cc1cc(F)ccc1N1CN(c2ccc(=O)[nH]c2Cl)C(=O)c2ccc(C(F)(F)F)cc21` [Example 151, 3-(2-chloro-6-oxo-1,6-dihydropyridin-3-yl)-1-(4-fluoro-2-methylphenyl)-7-(trifluoromethyl)-2,3-dihydroquinazolin-4(1H)-one] as the molecule, how does the IC50 [1] read?
Its IC50 is 794 to 7940 nM.

How did the IC50 [1] turn out when `Cc1cc(F)ccc1N1CN(c2cc[nH]c(=O)c2)C(=O)c2c1ccc(Cl)c2F` [Example 136, 6-chloro-5-fluoro-1-(4-fluoro-2-methylphenyl)-3-(2-oxo-1,2-dihydropyridin-4-yl)-2,3-dihydroquinazolin-4(1H)-one] was run?
Its IC50 is 794 to 7940 nM.

With `Cc1cc(F)ccc1N1CN(c2ccc(=O)[nH]c2C)C(=O)c2cc(C#N)c(Cl)cc21` [Example 233, 7-chloro-1-(4-fluoro-2-methylphenyl)-3-(2-methyl-6-oxo-1,6-dihydropyridin-3-yl)-4-oxo-1,2,3,4-tetra-hydroquinazoline-6-carbonitrile] as the molecule, how does the IC50 [1] read?
Its IC50 is no more than 100 nM.

With `COc1ccc(N2CN(c3ccc(F)cc3C)c3ccc(C(F)(F)F)cc3C2=O)c(C)n1` [Example 19, 1-(4-fluoro-2-methylphenyl)-3-(6-methoxy-2-methylpyridin-3-yl)-6-(trifluoromethyl)-2,3-dihydroquinazolin-4(1H)-one] as the molecule, how does the IC50 [1] read?
Its IC50 is 794 to 7940 nM.

With `CCc1[nH]c(=O)ccc1N1CN(c2ccc(F)cc2C(C)C)c2cc(C(F)(F)F)ccc2C1=O` [Example 83, 3-(2-ethyl-6-oxo-1,6-dihydropyridin-3-yl)-1-(4-fluoro-2-isopropylphenyl)-7-(trifluoromethyl)-2,3-dihydroquinazolin-4(1H)-one] as the molecule, how does the IC50 [1] read?
Its IC50 is no more than 100 nM.

For `CCc1[nH]c(=O)ccc1N1CN(c2ccc(F)cc2C)c2cc(OC(F)(F)F)ccc2C1=O` [Example 190, 3-(2-ethyl-6-oxo-1,6-dihydropyridin-3-yl)-1-(4-fluoro-2-methylphenyl)-7-(trifluoromethoxy)-2,3-dihydroquinazolin-4(1H)-one], which IC50 [1] is on record?
The IC50 was no more than 100 nM.

For `CCc1cc(F)ccc1N1CN(c2ccncc2C)C(=O)c2cc(Cl)c(F)cc21` [Example 12, 6-chloro-1-(2-ethyl-4-fluorophenyl)-7-fluoro-3-(3-methylpyridin-4-yl)-2,3-dihydroquinazolin-4(1H)-one], which IC50 [1] is on record?
The IC50 was 126 to 631 nM.

With `Cc1ncsc1N1CN(c2ccc(=O)[nH]c2C)C(=O)c2cc(C(F)(F)F)ccc21` [Example 224, 3-(2-methyl-6-oxo-1,6-dihydropyridin-3-yl)-1-(4-methylthiazol-5-yl)-6-(trifluoromethyl)-2,3-dihydroquinazolin-4(1H)-one] as the molecule, how does the IC50 [1] read?
The IC50 was 794 to 7940 nM.

`Cc1cc(F)ccc1N1CN(c2ccc(C(N)=O)nc2)C(=O)c2c1ccc(Cl)c2F` [Example 7, 5-(6-chloro-5-fluoro-1-(4-fluoro-2-methylphenyl)-4-oxo-1,4-dihydroquinazolin-3(2H)-yl)picolinamide] was tested. Which IC50 [1] did it give?
The IC50 was 794 to 7940 nM.

`Cc1cc(F)ccc1N1CN(c2ccc(=O)[nH]c2C)C(=O)c2c1cc(C#N)c(Cl)c2F` [Example 194, 6-chloro-5-fluoro-1-(4-fluoro-2-methylphenyl)-3-(2-methyl-6-oxo-1,6-dihydropyridin-3-yl)-4-oxo-1,2,3,4-tetra-hydroquinazoline-7-carbonitrile] was tested. Which IC50 [1] did it give?
The IC50 was no more than 100 nM.

How did the IC50 [1] turn out when `Cc1cc(F)ccc1N1CN(c2ccc(=O)[nH]c2C)C(=O)c2cc(F)c(C#N)cc21` [Example 242, 6-fluoro-1-(4-fluoro-2-methylphenyl)-3-(2-methyl-6-oxo-1,6-dihydropyridin-3-yl)-4-oxo-1,2,3,4-tetrahydroquin-azoline-7-carbonitrile] was run?
Its IC50 is no more than 100 nM.

`Cc1cc(O)ccc1N1CN(c2ccc(F)cc2C)c2cc(C(F)(F)F)ccc2C1=O` [Example 267, 1-(4-Fluoro-2-methylphenyl)-3-(4-hydroxy-2-methylphenyl)-7-(trifluoromethyl)-2,3-dihydroquinazolin-4(1H)-one] was tested. Which IC50 [1] did it give?
Its IC50 is 794 to 7940 nM.

`Cc1[nH]c(=O)ccc1N1CN(c2ccc(F)cc2C(C)C)c2ccc(Cl)cc2C1=O` [Example 76, 6-chloro-1-(4-fluoro-2-isopropylphenyl)-3-(2-methyl-6-oxo-1,6-dihydropyridin-3-yl)-2,3-dihydroquinazolin-4(1H)-one] was tested. Which IC50 [1] did it give?
The IC50 was no more than 100 nM.

For `Cc1c[n+]([O-])ccc1N1CN(c2ccc(OC(F)(F)F)cc2C)c2ccc(C(F)(F)F)cc2C1=O` [Example 256, 3-methyl-4-(1-(2-methyl-4-(trifluoromethoxy)phenyl)-4-oxo-6-(trifluoromethyl)-1,4-dihydroquinazolin-3(2H)-yl)pyridine 1-oxide], which IC50 [1] is on record?
The IC50 was no more than 100 nM.

Which IC50 [1] does the source give for `Cc1cc(C(F)(F)CO)ccc1N1CN(c2ccc(=O)[nH]c2C)C(=O)c2ccc(C(F)(F)F)cc21` [Example 202, 1-(4-(1,1-difluoro-2-hydroxyethyl)-2-methylphenyl)-3-(2-methyl-6-oxo-1,6-dihydropyridin-3-yl)-7-(trifluoromethyl)-2,3-dihydroquinazolin-4(1H)-one] here?
The IC50 was 794 to 7940 nM.
